“Also recorded” adds a separate entry of the source. Read-outs that look alike come from different tables or passages of the source.

Assay [1] deals with SPbeta AimR and operators presenting spacers from 12 bp to 35 bp. The settings on record: pH 7.5. The procedure:
AimR binding to its operator and the inhibition induced by the arbitrium peptides were analyzed by native polyacrylamide and agarose gel electrophoresis. […] Double strand DNA primer probes were purchased from Macrogen (Table S1 and Figure 3A). Purified PCR product or purchased probes (0.4μM) and AimR (4μM) protein were mixed in EMSA buffer (50 mM HEPES pH 7.5, 5 mM MgCl2, 75 mM NaCl and 0.5 mM EDTA). The samples were incubated for 10 min at room temperature. 8% polyacrylamide gels were electrophoresed in Tris-Borate-EDTA (TBE) buffer at 100V for one hour, followed by loading of the samples. Electrophoresis was then performed in TBE buffer at 4°C for about 150 min at 100V. Agarose gels (0.8%–1.2%) were run in TAE buffer at room temperature for about 100 min at 80V. Gels were stained with RedSafe (Intron Biotechnology).

In assay [2] the target is T1, SPbeta AimR (Bacillus phage SPbeta, UniProt O64094).
T1 construct: expresses the full-length AimR (residues 1-386) with an N-terminal 6xHistag; 6xHis tag followed by TEV protease site (N, cleaved yes); made in house; host or cells: E. coli BL21 (DE3) RIL
The assay can be described thus: SEC-MALS, effect of AimP on AimR oligomeric state. In kind it is biochemical, Bacillus subtilis SPbeta phage. The settings on record: 1 mM peptide in injected sample, 1 μM in running buffer; protein 5 mg/mL; 25 mM Tris pH 8, 250 mM NaCl. The procedure:
SEC-MALS experiments were performed using an AKTA pure system (GE Heralthcare) coupled to a Wyatt DAWN HELEOS-II MALS instrument and a Wyatt Optilab rEX differential refractometer (Wyatt). 50 μL of the protein samples were injected at a concentration of 5 mg/mL on a Superdex 200 HR 10/300 (GE Heralthcare) column equilibrated in 25 mM Tris pH 8, 250 mM NaCl. When the effect of the peptide in the oligomeric state was tested, 1 mM peptide was added to the injected sample and the running buffer was supplemented with peptide at a final concentration of 1 μM. The Astra 7.1.2 software from the manufacturer was used for acquisition and analysis of the data.
(In general: In gel filtration, larger molecules generally elute earlier.)

Assay [3] has as its target T1, SPbeta AimR. In kind it is binding, Bacillus subtilis SPbeta phage. The settings on record: WT SPbeta AimR, 20 μM protein, 20 mM Tris pH 8, 250 mM NaCl. The procedure: (§1) The thermal shift assay was conducted in a 7500 Fast Real time PCR System (Applied Biosystems). Samples of 20 μL containing 5 × Sypro Orange (Sigma-Aldrich) and 20 μM of protein in a 20 mM Tris pH 8 and 250 mM NaCl buffer were loaded in 96-well PCR plates. To calculate the apparent Kd peptide concentrations from 0 to 2 μM were added to the mixture. Samples were heated from 20 to 85°C in steps of one degree. Fluorescent intensity was plotted versus temperature and integrated with GraphPad Prism software using a Boltzmann model to calculate melting temperatures.

The test system of another assay is SPbeta AimR D360A. The assay can be described thus: Thermal shift assay, mutant AimR D360A. In kind it is binding, Bacillus subtilis SPbeta phage. The settings on record: residual stabilization versus WT. The procedure:
as §1

Assay [4] concerns SPbeta AimR bound to putative SPbeta operators. In kind it is biochemical, Bacillus subtilis SPbeta phage. The settings on record: pH 7.5. From the text: (§2) Gels were stained with RedSafe (Intron Biotechnology).
Assay [5] concerns SPbeta AimR bound to its operator. In kind it is biochemical, Bacillus subtilis SPbeta phage.
Source text: as §2

Another assay concerns SPbeta AimR N202A. Briefly: Thermal shift assay, mutant AimR N202A. In kind it is binding, Bacillus subtilis SPbeta phage. The settings on record: residual stabilization versus WT. The procedure:
as §1

The subject of assay [6] is AimR N202A bound to the AimR operator. Briefly: EMSA, AimP-induced DNA dissociation of mutant AimR N202A. In kind it is biochemical, Bacillus subtilis SPbeta phage. The settings on record: AimR 4 μM, probe 0.4 μM, HEPES pH 7.5, 10 min at room temperature.
Source text: as §2
(In general: In EMSA bound probe runs differently from free probe, usually more slowly.)

T1 sequence (O64094 whole entry, the tested form may be a part): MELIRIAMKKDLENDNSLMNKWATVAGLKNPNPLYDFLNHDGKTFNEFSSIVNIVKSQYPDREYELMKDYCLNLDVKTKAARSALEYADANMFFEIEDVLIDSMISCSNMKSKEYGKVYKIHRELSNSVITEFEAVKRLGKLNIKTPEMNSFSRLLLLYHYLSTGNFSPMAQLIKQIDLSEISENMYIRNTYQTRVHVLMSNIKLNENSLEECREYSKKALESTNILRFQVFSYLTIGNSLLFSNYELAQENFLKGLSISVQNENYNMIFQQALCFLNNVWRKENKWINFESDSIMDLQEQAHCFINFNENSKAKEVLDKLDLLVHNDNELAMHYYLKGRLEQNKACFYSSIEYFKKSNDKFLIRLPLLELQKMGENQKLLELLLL

Regarding “GMPRGA [regulatory arbitrium AimP peptide for SPbeta AimR, hexapeptide, 95% purity, ProteoGenix]”, in assay [1], the “DNA binding of AimR-AimP complex” value is “unable to bind DNA”. Also, at SPbeta AimR [2], the “effect of AimP on AimR dimer” value is “did not induce SPbeta AimR dimer dissociation”. Moreover, on SPbeta AimR [3], the “increment in the Tm (in words)” value was “strong stabilization of SPbeta AimR”. Further, the “melting temperature (Tm) of AimR in presence of peptide” value on SPbeta AimR [3] (5 × Sypro Orange, 20 to 85°C in steps of one degree, one of three independent experiments) was found to be 58.4 °C. The “stabilization induced by AimP, AimR D360A” value in the assay on SPbeta AimR D360A is given as 1 °. In addition, the “DNA release from putative SPbeta operators” value in assay [4] is “induces DNA release”. Besides, the “effect of peptide on AimR-DNA binding” value in assay [5] (pH 7.5) was “induced the release of AimR from DNA; also recorded: specifically disrupts the SPbeta AimR binding to its operator”. Also, the “stabilization induced by AimP, AimR N202A” value with SPbeta AimR N202A is recorded as 1 °. Also, the “effect of AimP on DNA dissociation of AimR^N202A” value in assay [6] is reported as “did not induce DNA dissociation”.
For the substance “SAIRGA [AimP peptide specific for phi3T phage, negative control for SPbeta AimR, reference compound]”, the “increment in the Tm (in words)” value on SPbeta AimR [3] was “No increment in the Tm”. For the same substance, in assay [5] (SPbeta AimR 4 μM, DNA probe 0.4 μM, 50 mM HEPES pH 7.5, 5 mM MgCl2, 75 mM NaCl, 0.5 mM EDTA, 10 min at room temperature), the “effect of peptide on AimR-DNA binding” value is recorded as “had no effect”.

Source of the values: PMC6458997, “Deciphering the Molecular Mechanism Underpinning Phage Arbitrium Communication Systems” (Molecular Cell, 2019).
